According to patent US20230381142A1, “ANTILEISHMANIAL COMPOUNDS, COMPOSITIONS AND USE THEREOF” (TRUSTEES OF BOSTON UNIVERSITY, priority 2022, published 2023):

How the values were obtained:
[1] = UCSD infection assay, host cell cytotoxicity (CC50); assay type: cell-based; conditions: mouse, B10R host cells infected with L. donovani
Description: (§1) Assay Conditions D: B10R cells (CVCL_0155) were seeded at 300 cells/well, and L. donovani WT promastigotes in stationary phase (7th day after passage) were added at 6,000 parasites/well (ratio of 20 parasites/cell). Both cells and parasites were seeded in DMEM High-Glucose medium (Gibco, cat. no. 11995065) containing 5% Fetal Bovine Serum (Sigma-Aldrich, cat. no. F2442) and 1% Penicillin-Streptomycin (Gibco, cat. no. 15140122). Cells and parasites were incubated in the presence of the compounds for 72 h at 37° C. and 5% C02. Plates were then fixed with 4% formaldehyde solution for at least 1 h, then washed with 1×PBS and stained with 5 μg/mL DAPI. Plates were read using an ImageXpress microscope (Molecular Devices) and analyzed by MetaXpress software (Molecular Devices) using a custom module optimized for this assay. […] Compounds were tested in a 10-point 2-fold serial dilution in 3 technical replicates, and 2 biological replicates. After 72 h, plates were fixed and stained with DAPI as described above. Images were acquired on an ImageXpress microscope, and analyzed using the MetaXpress custom module.
as §1, with “Compounds were obtained as 0.2 μmoles of dried film for primary single point screening. Each compound was diluted in DMSO to 10 μM final testing concentration. These compounds were tested in 2 biological replicates. The compounds were pre-spotted onto 384-well assay plates in single concentration.” for “Assay Conditions D:”, “CO2.” for “C02.”, “module. The DRCs were plotted, half-effective concentration (EC50) and half-cytotoxic concentration (CC50) were calculated using GraphPad Prism Software, version 6.05 (GraphPad Software, San Diego, CA).” for “module.”

[2] = tested on: L. braziliensis (strain BA788) in J774 cells; assay: J774 luciferase infection assay (Assay Conditions E); assay type: cell-based, Leishmania braziliensis; conditions: for L. braziliensis amastigotes EC75 (J774 cells): footnote e
Description: Assay Conditions E: J774 cells (ATCC J774A.1 were grown in DMEM supplemented with 10% Fetal Bovine Serum (FBS) and 1% Penicillin-Streptomycin at 37° C. in 5% CO2. Leishmania parasites expressing luciferase and GFP were grown as described in Front. Cell. Infect. Microbiol (2019) 9:237. J774 cells were seeded in microwell plates at 3×10^5 cells/mL density. Cells were washed with PBS and incubated with complete DMEM medium containing stationary phase Leishmania promastigotes (L. major: strain Friedlin; L. braziliensis, strain BA788) at a 1:10 parasite-cell ratio for 24 h. Cells were washed with PBS. Cells and compounds were incubated for 48 h at 37° C. and 5% C02. Compounds were tested in 8-point 2-fold serial dilution in 4 technical replicates, and 2 biological replicates. After 48 h, OneTiterGlo (Promega) (100 μl) was added to each well. Plates were incubated for 15 min and bioluminescence was measured using a plate reader (Molecular Devices). Effective concentration inducing 75% activity (EC75) was calculated using GraphPad Prism Software (version 9.0).

[3] = tested on: L. donovani intracellular amastigotes in B10R cells; assay: UCSD L. donovani infection assay (Assay Conditions D); assay type: cell-based; conditions: B10R cells; for L. donovani amastigotes EC75 (B10R cells): footnote d; for EC50: Leishmania donovani, values marked d, read-out: L. donovani amastigotes EC50 (B10R cells)
Procedure, shortened: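 B10R cells (300/well) infected with stationary-phase L. donovani WT promastigotes at 20 parasites/cell in DMEM high-glucose, 5% FBS, with compounds 72 h at 37° C., 5% CO2. Formaldehyde-fixed, DAPI-stained, imaged by high-content microscopy; 10-point 2-fold dilutions (screen at 10 μM) gave EC50 and host CC50.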

[4] = tested on: THP-1 cells; assay: Host THP-1 cell cytotoxicity in the CDIPD high content screen; assay type: cell-based, human; conditions: Homo sapiens, THP-1; 10 μM; footnote b; read-out: THP-1 host cell % growth inhibition at 10 μM
Description: (§2) Assay Conditions B: THP-1 cells (human acute monocytic leukemia cell line—ATCC TIB202) were grown in RPMI supplemented with 10% Fetal Bovine Serum (FBS) and 50 μM 2-mercaptoethanol at 37° C. in 5% CO2. THP-1 were seeded in microwell plates at 5×10^5 cells/mL density and treated with 0.1 μM phorbol myristate acetate (PMA, Sigma) at 37° C. for 48 h for differentiation into adherent, non-dividing macrophages. After activation by PMA, cells were washed and incubated with complete RPMI medium containing stationary phase Leishmania promastigotes (L. major: strain LV39; L. donovani, strain 1S/Cl2D) at a 1:15 parasite-cell ratio. Compounds were added and incubated at 37° C. for 72 h. Cells were then washed with phosphate-buffered saline (PBS), fixed for 30 minutes with 4% formaldehyde, rinsed again with PBS, stained for 2 h with 4′,6′-diamidino-2-phenylindole (DAPI 300 nM) and finally washed with PBS. In a collaborative effort to identify new antileishmanial chemotypes with minimal host cell cytotoxicity, compounds from the Boston University Center for Molecular Discovery (BUCMD) screening collection were assessed in a phenotypic, high content primary screen at the University of California's Center for Discovery and Innovation in Parasitic Diseases (CDIPD) for the ability to inhibit growth of L. donovani intracellular amastigotes infecting THP-1 cells. […] Dose-response testing in L. donovani (both intracellular amastigotes and promastigotes) confirmed concentration-dependent growth inhibition of both morphologies of the parasite at low micromolar EC50 values for both compounds (Table 1).

[5] = tested on: L. donovani intracellular amastigotes infecting THP-1 cells; assay: High content intracellular amastigote assay in THP-1 cells (Assay Conditions B; CDIPD screen); assay type: cell-based, Leishmania donovani; conditions: 10 μM; THP-1 cells; footnote b
Description: as §2

[6] = GSK inMac assay, host cell toxicity readout (LD MAC); assay type: cell-based, human; conditions: human; footnote c; read-out: THP-1 Host Cell CC50
Procedure, shortened: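 Intramacrophage L. donovani assay in THP-1 macrophages; host toxicity taken from host cell number per well, giving MAC EC50. Run alongside amastigote-per-cell and infected-cell readouts in the same wells.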

[7] = tested on: L. donovani intracellular amastigotes infecting THP-1 macrophages; assay: GSK intramacrophage L. donovani assay (LD AMMAC, inMac; Assay Conditions C); assay type: cell-based; conditions: Leishmania donovani; THP-1 cells; values marked c; read-out: L. donovani amastigotes EC50 (THP-1 cells)
Procedure, shortened: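 L. donovani amastigotes within THP-1 macrophages; EC50 based on average intracellular amastigotes per infected cell (AMMAC). Infected-cell percentage (INFCELL) and host-cell number (MAC) also read, the latter as toxicity output.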

| Structure (SMILES) | L. braziliensis amastigotes EC75 (μM, J774 cells) [2] | L. donovani amastigotes EC75 (μM, B10R cells) [3] | inhibition at 10 µM [4] | L. donovani amastigotes % GI at 10 μM (THP-1 cells) [5] | further results |
| --- | --- | --- | --- | --- | --- |
| Cc1cc(N2C(=O)c3[nH]nc(CC(C)C)c3C2c2ccccc2Cl)ccn1 (stereo not shown) [BUCMD00639] | – | – | – | – | CC50 at 72 h ([1]; footnote d): 20 µM; L. braziliensis amastigotes EC75 (J774 cells) [2]: >10 µM; L. donovani amastigotes EC75 (B10R cells) [3]: 0.4 µM |
| COc1ccc(N2C(=O)c3[nH]nc(CC(C)C)c3C2c2ccccc2C)cn1 (stereo not shown) [BUCMD00687] | >10 µM | >10 µM | – | – | – |
| COc1ccc(N2C(=O)c3[nH]nc(CC(C)C)c3C2c2ccc(F)cc2F)cn1 (stereo not shown) [BUCMD00688] | >10 µM | 3.3 µM | – | – | – |
| COc1ccc(N2C(=O)c3[nH]nc(CC(C)C)c3C2c2ccccc2C(F)(F)F)cn1 (stereo not shown) [BUCMD00689] | >10 µM | >10 µM | – | – | – |
| COc1ccc(N2C(=O)c3[nH]nc(CC(C)C)c3C2c2sccc2C)cn1 (stereo not shown) [BUCMD00690] | >10 µM | 9.7 µM | – | – | – |
| COc1ccc(N2C(=O)c3[nH]nc(CC(C)C)c3C2c2ccccc2F)cn1 (stereo not shown) [BUCMD00691] | >10 µM | 4.9 µM | – | – | – |
| COc1ccc(N2C(=O)c3[nH]nc(CC(C)C)c3C2c2ccc(F)c(F)c2)cn1 (stereo not shown) [BUCMD00692] | >10 µM | >10 µM | – | – | – |
| CC(C)Cc1n[nH]c2c1C(c1ccc(F)cc1Cl)N(c1cncc(F)c1)C2=O (stereo not shown) [BUCMD00694] | – | – | – | – | CC50 at 72 h ([1]; footnote d): 10 µM; L. braziliensis amastigotes EC75 (J774 cells) [2]: >10 µM; L. donovani amastigotes EC75 (B10R cells) [3]: 0.4 µM |
| C#CCCOc1ccc(C2c3c(CC(C)C)n[nH]c3C(=O)N2c2ccc(OC)cc2)c(Cl)c1 (stereo not shown) [BUCMD00728] | >10 µM | >10 µM | – | – | – |
| COc1ncc(N2C(=O)c3[nH]nc(CC(C)C)c3C2c2ccc(F)cc2C)cc1F (stereo not shown) [BUCMD00729] | – | – | – | – | CC50 at 72 h ([1]; footnote d): 6.31 µM; L. braziliensis amastigotes EC75 (J774 cells) [2]: 2.0 µM; L. donovani amastigotes EC75 (B10R cells) [3]: 0.4 µM |
| C#CCCCCOc1ccc(C2c3c(CC(C)C)n[nH]c3C(=O)N2c2ccc(OC)nc2)c(Cl)c1 (stereo not shown) [BUCMD00738] | >10 µM | >10 µM | – | – | CC50 at 72 h ([1]; host B10R cells): 7.94 µM |
| COc1ccc(N2C(=O)c3[nH]nc(C(C)C)c3C2c2ccc(C)cc2)cc1 (stereo not shown) [CMLD007169] | – | – | < 10% | 0.0% | – |
| COc1ccc(N2C(=O)c3[nH]nc(C(C)C)c3C2c2ccc(F)cc2)cc1 (stereo not shown) [CMLD007188] | – | – | < 10% | 0.0% | – |
| COc1ccc(N2C(=O)c3[nH]nc(-c4ccccc4)c3C2c2ccccc2)cc1 (stereo not shown) [CMLD007203] | – | – | < 10% | 0.0% | – |
| COc1ccc(N2C(=O)c3[nH]nc(C)c3C2c2ccccc2)cc1 (stereo not shown) [CMLD007219] | – | – | < 10% | 0.0% | – |
| COc1ccc(N2C(=O)c3[nH]nc(C)c3C2c2ccc(F)cc2)cc1 (stereo not shown) [CMLD007221] | – | – | < 10% | 0.0% | – |
| COc1ccc(N2C(=O)c3[nH]nc(-c4ccccc4)c3C2c2ccc(F)cc2)cc1 (stereo not shown) [CMLD007235] | – | – | 30% | 0.0% | – |
| COc1ccc(N2C(=O)c3[nH]nc(C)c3C2c2ccc(C)cc2)cc1 (stereo not shown) [CMLD007247] | – | – | < 10% | 0.0% | – |
| COc1ccc(N2C(=O)c3[nH]nc(-c4ccccc4)c3C2c2ccc(C)cc2)cc1 (stereo not shown) [CMLD007262] | – | – | < 10% | 0.0% | – |
| COc1ccc(N2C(=O)c3[nH]nc(C(C)C)c3C2c2ccccc2)cc1 (stereo not shown) [CMLD007286] | – | – | < 10% | 0.0% | – |
| COc1ccc(N2C(=O)c3[nH]nc(CC(C)C)c3C2c2ccc(F)cn2)cc1 (stereo not shown) [CMLD011100] | – | – | – | – | CC50 [6]: > 50 µM; EC50 [7]: 10 µM; L. braziliensis amastigotes EC75 (J774 cells) [2]: >10 µM; L. donovani amastigotes EC75 (B10R cells) [3]: 4.4 µM |
| COc1ccccc1C1c2c(CC(C)C)n[nH]c2C(=O)N1c1ccc(N(C)C)cc1 (stereo not shown) [CMLD011552] | – | – | – | – | CC50 [6]: 3.5 µM; CC50 at 72 h ([1]; footnote d): 3.98 µM; L. braziliensis amastigotes EC75 (J774 cells) [2]: >10 µM; L. donovani amastigotes EC75 (B10R cells) [3]: 0.1 µM; EC50 [3]: 0.1 µM |
| Cc1cc(F)ccc1C1c2c(CC(C)C)n[nH]c2C(=O)N1c1ccc(Br)cc1 (stereo not shown) [CMLD011565] | – | – | – | – | CC50 [6]: 3 µM; CC50 at 72 h ([1]; footnote d): 3.98 µM; L. braziliensis amastigotes EC75 (J774 cells) [2]: 5.0 µM; L. donovani amastigotes EC75 (B10R cells) [3]: 0.1 µM; EC50 [3]: 0.1 µM |
